Columns and labels:
Type in all cases: in vivo
[1] = system: blackgrass (Alopecurus myosuroides); test: Test B pre-/postemergence; set-up: key: 0 is no effect; 10 is complete control
Procedure, shortened: (§1)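 Scored visually 0 (none) to 10 (complete control) against untreated plants after twelve to sixteen greenhouse days. Test chemicals, formulated in surfactant-containing non-phytotoxic solvent, applied to soil after planting and, separately, onto 1- to 4-leaf (2–18 cm) plants.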

[2] = system: cocklebur (Xanthium strumarium); test: Test B pre-/postemergence; set-up: key: 0 is no effect; 10 is complete control
Procedure, shortened: as §1

[3] = system: corn (Zea mays); test: Test B pre-/postemergence; set-up: key: 0 is no effect; 10 is complete control
Procedure, shortened: as §1

[4] = system: crabgrass (Digitaria sanguinalis); test: Test B pre-/postemergence; set-up: key: 0 is no effect; 10 is complete control
Procedure, shortened: as §1

[5] = system: pigweed (Amaranthus retroflexus); test: Test B pre-/postemergence; set-up: key: 0 is no effect; 10 is complete control
Procedure, shortened: as §1

[6] = system: purple nutsedge (Cyperus rotundus); test: Test B pre-/postemergence; set-up: key: 0 is no effect; 10 is complete control; settings: for Plant response rating, Nutsedge: Postemergence; for Nutsedge plant response rating: Preemergence
Procedure, shortened: as §1

[7] = system: rape (Brassica napus); test: Test B pre-/postemergence; set-up: key: 0 is no effect; 10 is complete control
Procedure, shortened: as §1

[8] = system: soybean (Glycine max); test: Test B pre-/postemergence; set-up: key: 0 is no effect; 10 is complete control
Procedure, shortened: as §1

[9] = system: sugar beet (Beta vulgaris); test: Test B pre-/postemergence; set-up: key: 0 is no effect; 10 is complete control
Procedure, shortened: as §1

[10] = system: velvetleaf (Abutilon theophrasti); test: Test B pre-/postemergence; set-up: key: 0 is no effect; 10 is complete control
Procedure, shortened: as §1

[11] = system: wheat (Triticum aestivum); test: Test B pre-/postemergence; set-up: key: 0 is no effect; 10 is complete control
Procedure, shortened: as §1

[12] = system: bamyardgrass (Echinochloa crus-galli); test: Test B flood test
Procedure, shortened: (§2)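 Flood test on plants grown to the 2-leaf stage; treated plants kept in greenhouse twelve to sixteen days, then visually rated against controls on a 0 (no effect) to 10 (complete control) scale.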

[13] = system: duck salad (Heteranthera limosa); test: Test B flood test
Procedure, shortened: as §2

[14] = system: rice (Oryza sativa); test: Test B flood test
Procedure, shortened: as §2

[15] = system: smallflower flatsedge (Cyperus difformis); test: Test B flood test
Procedure, shortened: as §2

[16] = Rate 62 g/ha, Postemergence (flood test)
[17] = Rate 125 g/ha, Postemergence, flood test
[18] = Rate 250 g/ha, Postemergence (flood test species)

Which results are given for `CCc1cnc(-c2ccc(C(F)(F)F)cc2)nc1Cc1cccc(C(F)(F)F)c1` [Compound 22]?
Plant response rating, Blackgrass ([1]; Rate 62 g/ha, Postemergence): 5; Blackgrass plant response rating ([1]; Rate 62 g/ha, Preemergence): 8; Plant response rating, Blackgrass ([1]; Rate 125 g/ha, Postemergence): 8; Blackgrass plant response rating ([1]; Rate 125 g/ha, Preemergence): 9; Plant response rating, Blackgrass ([1]; Rate 250 g/ha, Postemergence): 9; Plant response rating, Blackgrass ([1]; Rate 250 g/ha, Preemergence): 9; Plant response rating, Cocklebur ([2]; Rate 62 g/ha, Postemergence): 8; Cocklebur plant response rating ([2]; Rate 62 g/ha, Preemergence): 1; Plant response rating, Cocklebur ([2]; Rate 125 g/ha, Postemergence): 8; Cocklebur plant response rating ([2]; Rate 125 g/ha, Preemergence): 1; Plant response rating, Cocklebur ([2]; Rate 250 g/ha, Postemergence): 8; Plant response rating, Cocklebur ([2]; Rate 250 g/ha, Preemergence): 2; Plant response rating, Corn ([3]; Rate 62 g/ha, Postemergence): 3; Corn plant response rating ([3]; Rate 62 g/ha, Preemergence): 0; Plant response rating, Corn ([3]; Rate 125 g/ha, Postemergence): 3; Corn plant response rating ([3]; Rate 125 g/ha, Preemergence): 0; Plant response rating, Corn ([3]; Rate 250 g/ha, Postemergence): 4; Plant response rating, Corn ([3]; Rate 250 g/ha, Preemergence): 2; Plant response rating, Crabgrass ([4]; Rate 62 g/ha, Postemergence): 9; Crabgrass plant response rating ([4]; Rate 62 g/ha, Preemergence): 7; Plant response rating, Crabgrass ([4]; Rate 125 g/ha, Postemergence): 9; Crabgrass plant response rating ([4]; Rate 125 g/ha, Preemergence): 10; Plant response rating, Crabgrass ([4]; Rate 250 g/ha, Postemergence): 9; Plant response rating, Crabgrass ([4]; Rate 250 g/ha, Preemergence): 10; Plant response rating, Redroot pigweed ([5]; Rate 62 g/ha, Postemergence): 10; Redroot pigweed plant response rating ([5]; Rate 62 g/ha, Preemergence): 9; Plant response rating, Redroot pigweed ([5]; Rate 125 g/ha, Postemergence): 10; Redroot pigweed plant response rating ([5]; Rate 125 g/ha, Preemergence): 10; Plant response rating, Redroot pigweed ([5]; Rate 250 g/ha, Postemergence): 10; Plant response rating, Redroot pigweed ([5]; Rate 250 g/ha, Preemergence): 10; Plant response rating, Nutsedge ([6]; Rate 62 g/ha): 0; Nutsedge plant response rating ([6]; Rate 62 g/ha): 0; Plant response rating, Nutsedge ([6]; Rate 125 g/ha): 0; Nutsedge plant response rating ([6]; Rate 125 g/ha): 1; Plant response rating, Rape ([7]; Rate 62 g/ha, Postemergence): 10; Rape plant response rating ([7]; Rate 62 g/ha, Preemergence): 5; Plant response rating, Rape ([7]; Rate 125 g/ha, Postemergence): 10; Rape plant response rating ([7]; Rate 125 g/ha, Preemergence): 7; Plant response rating, Rape ([7]; Rate 250 g/ha, Postemergence): 10; Plant response rating, Rape ([7]; Rate 250 g/ha, Preemergence): 10; Plant response rating, Soybean ([8]; Rate 62 g/ha, Postemergence): 6; Soybean plant response rating ([8]; Rate 62 g/ha, Preemergence): 1; Plant response rating, Soybean ([8]; Rate 125 g/ha, Postemergence): 7; Soybean plant response rating ([8]; Rate 125 g/ha, Preemergence): 1; Plant response rating, Soybean ([8]; Rate 250 g/ha, Postemergence): 8; Plant response rating, Soybean ([8]; Rate 250 g/ha, Preemergence): 2; Plant response rating, Sugarbeets ([9]; Rate 62 g/ha, Postemergence): 10; Sugarbeets plant response rating ([9]; Rate 62 g/ha, Preemergence): 9; Plant response rating, Sugarbeets ([9]; Rate 125 g/ha, Postemergence): 10; Sugarbeets plant response rating ([9]; Rate 125 g/ha, Preemergence): 9; Plant response rating, Sugarbeets ([9]; Rate 250 g/ha, Postemergence): 10; Plant response rating, Sugarbeets ([9]; Rate 250 g/ha, Preemergence): 10; Plant response rating, Velvetleaf ([10]; Rate 62 g/ha, Postemergence): 8; Velvetleaf plant response rating ([10]; Rate 62 g/ha, Preemergence): 8; Plant response rating, Velvetleaf ([10]; Rate 125 g/ha, Postemergence): 8; Velvetleaf plant response rating ([10]; Rate 125 g/ha, Preemergence): 8; Plant response rating, Velvetleaf ([10]; Rate 250 g/ha, Postemergence): 9; Plant response rating, Velvetleaf ([10]; Rate 250 g/ha, Preemergence): 8; Plant response rating, Wheat ([11]; Rate 62 g/ha, Postemergence): 4; Wheat plant response rating ([11]; Rate 62 g/ha, Preemergence): 2; Plant response rating, Wheat ([11]; Rate 125 g/ha, Postemergence): 4; Wheat plant response rating ([11]; Rate 125 g/ha, Preemergence): 2; Plant response rating, Wheat ([11]; Rate 250 g/ha, Postemergence): 6; Plant response rating, Wheat ([11]; Rate 250 g/ha, Preemergence): 4; Plant response rating, Barnyardgrass [12, 16]: 4; Plant response rating, Barnyardgrass [12, 17]: 5; Plant response rating, Barnyardgrass [12, 18]: 6; Plant response rating, Ducksalad [13, 16]: 3; Plant response rating, Ducksalad [13, 17]: 4; Plant response rating, Ducksalad [13, 18]: 6; Plant response rating, Rice [14, 16]: 3; Plant response rating, Rice [14, 17]: 4; Plant response rating, Rice [14, 18]: 5; Plant response rating, S. Flatsedge [15, 16]: 3; Plant response rating, S. Flatsedge [15, 17]: 8; Plant response rating, S. Flatsedge [15, 18]: 9
